Experimental data as given in a melting point compilation (Tetko et al.; mined from patent text by program, amines drawn as free bases though some values may be those of a salt).

Row | melting point | SMILES
1 | 187 to 190 °C | CC1=C(C(=O)O)C(c2ccccc2Cl)C(c2nnco2)=C(C)N1 (stereo not drawn)
2 | 195 °C | CN1CCN(S(=O)(=O)c2cccc(NC(=O)c3cnn4c(C(F)(F)F)cc(-c5ccc(Cl)cc5)nc34)c2)CC1
3 | 120 to 122 °C | O=C1CCCN1C(=O)Oc1ccccc1
4 | 106 to 108 °C | Clc1ccc(C2=CCCc3cc(Cl)c(Cl)cc32)cc1
5 | 57 to 60 °C | COc1ccc(S(=O)(=O)C(Cc2cccnc2)(CC2CCCCC2)C(=O)NO)cc1 (stereo not drawn)
6 | 62 to 63 °C | O=C(O)CCCCCCc1nc2ccccc2s1
7 | 70 to 71 °C | Cc1scc(CO)c1N
8 | 59 to 60 °C | CN(C)CCc1cccc(OCCCN2C(=O)c3ccccc3C2=O)c1
9 | 114 °C | CCCCc1nc(S)c(C(=O)OCC)n1Cc1cc2c(cc1Cl)OCO2
10 | 139 to 141 °C | Cc1cc(SCc2ccc(OCc3ccc(F)cc3F)cc2)ccc1OCC(=O)O
11 | 71 to 73 °C | COC(=O)C(C#N)=C(O)c1cc(F)c(F)c(F)c1F
12 | 110 °C | CCOc1cc(NC(C)=O)c([N+](=O)[O-])cc1C(=O)OC
13 | 311 to 313 °C | O=c1[nH]c2ncc(-c3ccc4[nH]ncc4c3)nc2n1CC1CCCCC1
14 | 125 to 126 °C | CC(C)(C)[Si](C)(C)Oc1cc(Cl)cc(C(O)(C#CC2CC2)C(F)(F)F)c1N (stereo not drawn)
15 | 69 to 71 °C | O=[N+]([O-])c1ccccc1N1CCCc2ccccc21
16 | 236 °C | Oc1ccc(-c2csc(S)n2)cc1O
17 | 131 to 133 °C | CC(=O)c1nc2ccc(Oc3ccccc3)cc2cc1O
18 | 195 °C | OC1CSC(Oc2cccnc2-c2cncnc2)C(O)C1O (stereo not drawn)
19 | 177 to 178 °C | COC(=O)c1ccccc1-n1c(CCl)nc2cccc(Cl)c2c1=O
20 | 112 to 114 °C | CCOC(=O)CC(=O)N(C)c1ccc(Cl)cc1N
21 | 223 to 224 °C | CCn1cc(Cl)c2cnc(NC(=O)c3ccc([C@](C)(O)CO)cc3)cc21
22 | > 250 °C | O=c1[nH]c2cc(N3CCCC3)c(F)cc2c(=O)n1OCc1ccccc1
23 | 222 °C | N#Cc1ncn2c(C(F)(F)F)cc(-c3cccnc3)nc12
24 | 271 to 272 °C | Cc1c2cc(C(=O)O)[nH]c2cc2c1sc1ccccc12

Row | melting point | SMILES
25 | 128 to 129 °C | CCOC(=O)c1[nH]c2c(C)ccc(C)c2c1C(=O)OC
26 | 96 to 98 °C | COc1ccc(CCNC(=O)C(F)(F)F)cc1S(=O)(=O)Cl
27 | 63 to 64 °C | COc1ccc2cc(C(C)C(=O)OCc3ccc(OC(=O)OCCC(C)(C)C)cc3)ccc2c1 (stereo not drawn)
28 | 148 °C | N#Cc1cccc(-c2cnco2)n1
29 | 108 to 110 °C | CCCCNC(=O)Cc1ccc2c(c1)c(Cc1ccc(C(=O)NS(=O)(=O)c3ccccc3C)cc1OC)cn2C
30 | 147 to 149 °C | C=C(CS(C)(=O)=O)C(=O)O
31 | 126 °C | COc1ccc2c(C(C)C(=O)OC3CC(=O)NC3=O)cccc2c1 (stereo not drawn)
32 | 233 to 235 °C | O=C(O)c1cccc(C(=O)C=Cc2ccc(OCc3ccc4ccccc4n3)cc2)c1O
33 | 125 to 126 °C | CCCc1nn(-c2ccc(C(F)(F)F)cn2)cc1CCCOc1c(CC(=O)O)cnn1CC
34 | 237 to 238 °C | CN(C)c1nc2sc3c(NCc4cccnc4)ncnc3c2c2c1CCC2(C)C
35 | > 250 °C | COc1cc2[nH]c(=O)n(S(=O)(=O)c3ccc(Cl)cc3)c(=O)c2cc1OC
36 | 119 to 122 °C | O=C1NCC(CN2CCCCC2)c2c[nH]c3cccc1c23 (stereo not drawn)
37 | > 250 °C | O=C(O)c1cccc2c1CC(c1csc(-c3ccncc3)n1)C(=O)N2 (stereo not drawn)
38 | 150 °C | CCC(C)n1cc(Cl)nc(N2CCc3cc(Br)cc(Cl)c32)c1=O (stereo not drawn)
39 | 263 to 265 °C | Nc1ccc2c(=O)n3c(nc2c1)C(=Cc1ccc(O)c(O)c1)CC3
40 | 88 to 90 °C | CCCCCCC(=N)NC(=S)Nc1cc(C(F)(F)F)ccc1Cl
41 | > 275 °C | Cc1ccc(S(=O)(=O)Nc2cccc(-c3nnc(-c4ccc(C(=O)O)cc4)o3)c2)cc1
42 | 170 °C | O=S1(=O)CCSC(Oc2cccc(Cl)c2)=N1
43 | 76 °C | CCOC(=O)c1ccc(-c2cccc(O)c2)cc1
44 | 160 to 162 °C | S=C=Nc1ccc2sc(-c3cccnc3)nc2c1
45 | 142 to 144 °C | COc1ccc2c(ccc3cc(OC)c(OC)c(OC)c32)c1
46 | 258 °C | CCc1ccc(-c2nc3ccccc3[nH]2)cc1
47 | 127 to 128 °C | COc1ccnc(CCc2nc3cc(-c4ccc(S(=O)(=O)N(CCO)CCO)cc4)cnc3[nH]2)c1
48 | 142 to 145 °C | CC(C)c1nc(CCO)n(Cc2ccc([N+](=O)[O-])cc2)c1Sc1cc(Cl)cc(Cl)c1

Row | melting point | SMILES
49 | 226 to 228 °C | COc1ccc2c(c1OC)C=NCN2CCC(=O)O
50 | 233 to 245 °C | CCOC(=O)c1cnc(Cc2ccccc2)c(C)c1Cl
51 | > 250 °C | CC(=O)c1cnn(O)c1-c1ccc(C(=O)O)cc1C
52 | 101 to 102 °C | CCOC(=O)C1COc2cc(C=O)c(Cl)c(Cl)c2O1 (stereo not drawn)
53 | 84 to 86 °C | COCCOc1ccc(CC(C)CO)c(Oc2ncc(C(F)(F)F)cc2Cl)c1 (stereo not drawn)
54 | 188 to 191 °C | COc1cc(OC)c(OC)cc1CN1CCc2cc(O)ccc2C1
55 | 56 to 58 °C | CCOCC(=O)c1nc2c(Cl)cc(F)c(-n3c(=O)cc(C(F)(F)F)n(C)c3=O)c2o1
56 | 70 to 75 °C | O=C(CN1C(=O)C2(COc3cc(Cl)ccc32)c2ccccc21)Nc1ccccc1F (stereo not drawn)
57 | 118 to 120 °C | COC(=O)c1oc2cc(S)ccc2c1C
58 | 284 to 289 °C | Nc1ncc2cc(-c3c(Br)cccc3Br)c(N)nc2n1
59 | 204 °C | CC(Oc1ccc(N(C)c2cnc3cc(Cl)ccc3n2)cc1)C(=O)O (stereo not drawn)
60 | 139 to 140 °C | CNC(=O)C1(C)Oc2c(C)c(C)c(O)c(C)c2CC1OC (stereo not drawn)
61 | 117 to 119 °C | Oc1ccc2c(c1)OCC(c1ccc(C(F)(F)F)cc1)C2c1ccc(OCCN2CCCCC2)cc1 (stereo not drawn)
62 | 81 to 83 °C | COC(=O)c1cc(CCc2cc(OC)ccc2OC)ccc1NC(C)=O
63 | 79 to 83 °C | O=C(O)C1Cc2ccccc2N1S(=O)(=O)c1ccc(-c2cc(C(F)(F)F)ccc2Cl)cc1 (stereo not drawn)
64 | 200 to 202 °C | Nc1ccc(NC(=O)Nc2cccc(C(F)(F)F)c2)c(O)c1
65 | 220 to 222 °C | N#Cc1cccc2c1CC(=NN)c1cc(F)ccc1S2
66 | 84 to 92 °C | OCC1OC(n2cnc3c(NCC4(c5cccs5)CCC4)ncnc32)C(O)C1O (stereo not drawn)
67 | 191 to 193 °C | O=C1CCCc2sc(CCN3CCC(c4csc5cc(F)ccc45)CC3)cc2N1
68 | 213 to 215 °C | N#Cc1cn(C2CC2)c2c(F)c(F)c(F)cc2c1=O
69 | 254 to 256 °C | O=C(O)C1=CC=CC(C(=O)c2ccc(O)c(O)c2)(C(=O)c2ccc(O)c(O)c2)C1
70 | 114 to 115 °C | CCN(CC)C(Cc1cccs1)=Nc1ccc2sc3ccccc3c2c1
71 | 35 to 38 °C | CCCCCCCCC=CCCCCCCCCOCC(CN(C)C)OCCCCCCCCC=CCCCCCCCC (stereo not drawn)
72 | 176 to 179 °C | Nc1nc(N)nc(-c2ccc3c(c2)OC(F)(F)C(F)(F)O3)n1

Row | melting point | SMILES
73 | 135 to 136 °C | CCOc1cc(OCCCc2cn(-c3ccc(C(F)(F)F)cn3)nc2-c2ccccc2)ccc1CCC(=O)O
74 | 147 to 150 °C | CN(Cc1ccccc1)c1nc(N2CCOCC2)nc(-n2c(C(F)F)nc3ccccc32)n1
75 | 164 °C | CC(C)(C)c1cc2c(c(C(C)(C)C)c1)O[PH](=O)Oc1c(cc(C(C)(C)C)cc1C(C)(C)C)C2
76 | 162 to 164 °C | Cc1cccc(C)c1NC(=O)CCS(=O)c1cc(C(C)(C)C)c(O)c(C(C)(C)C)c1 (stereo not drawn)
77 | 118 to 120 °C | CCCC(=O)c1cnc2ccsc2c1Nc1ccccc1C(C)C
78 | 154 to 155 °C | O=C(NCC(F)(F)F)NCC(F)(F)F
79 | 186 to 188 °C | COc1ccc(N2CCN(c3ccc([N+](=O)[O-])nc3)CC2)cc1
80 | 94.5 to 96.1 °C | Cc1ccc([N+](=O)[O-])c(C)c1CO
81 | 139 to 141 °C | N=C(N)c1c[nH]c2ccc(CCNC(=O)c3ccc(-c4ccnc(N5CCCC5C(N)=O)n4)cc3)cc12 (stereo not drawn)
82 | 89 to 91 °C | Fc1ccc(-c2ccc(C3OCCO3)cc2)cc1F
83 | 187 to 189 °C | Cc1c(C)n(Cc2ccccc2)c(=O)[nH]c1=O
84 | 66 to 70 °C | CC(C)OCCC(=O)C=P(c1ccccc1)(c1ccccc1)c1ccccc1
85 | 142 to 143 °C | COc1c(C(=O)O)sc(C)c1C
86 | 354 to 359 °C | Nc1c(Cl)cc2c3c(cccc13)C(=O)N(O)C2=O
87 | 57 to 58 °C | O=S(c1ccccc1-c1ccccc1)C(F)(F)F (stereo not drawn)
88 | 61.5 to 62.5 °C | CCCCc1c(C=O)ccc2c(OC)cccc12
89 | 207 to 210 °C | COc1ccc(CN2CCC(N3Cc4cc(Cl)c(S(N)(=O)=O)cc4C3=O)CC2)cc1
90 | 155 °C | CC(=O)N1CCCc2ccc(S(=O)(=O)C[N+](=O)[O-])cc21
91 | 88 to 90 °C | CCOP(=O)(/C=C/c1cn(-c2ccccc2)nc1OCc1ccc(OCc2nc(N3CCOCC3)sc2C)c(OC)c1)OCC
92 | 140 to 143 °C | Clc1ccc2oc(-c3ccccc3)cc2c1
93 | 100 to 112 °C | CNC(=O)C1CN(C(=O)/C=C/C2=C(C)CCCC2(C)C)CCN1C(N)=O (stereo not drawn)
94 | 148 to 150 °C | Cc1c(C)c(N2Cc3cc(Cl)c(Cl)cc3C2)c(C)c2c1OC(C)(C)C2c1ccc(C(C)C)cc1 (stereo not drawn)
95 | 49 °C | CC(C)(O)[C@H](N)c1ccccc1
96 | 88 to 89 °C | CON=C(C)C(=NOCc1ccccc1)C(=O)O

Row | SMILES | melting point
97 | CC(C)(C)OC(=O)C(F)=CC1C(C(=O)OC(C#N)c2cccc(Oc3ccccc3)c2)C1(C)C (stereo not drawn) | 103 °C
98 | OC(c1cccc(F)c1)C1CCCCN1 (stereo not drawn) | 146 to 148 °C
99 | OC[C@@H]1CC[C@H]2CN(c3ncc(F)cn3)CCN2C1 | 148 to 150 °C
100 | C1=C(c2c[nH]c3ccccc23)CCN(CC2CCc3ccccc32)C1 (stereo not drawn) | 168 to 170 °C
101 | COc1ccc(CCNCC(O)c2ccccc2)cc1OC (stereo not drawn) | 92 to 93 °C
102 | COc1cc(C(=O)P2(=O)Oc3ccccc3-c3ccccc32)cc(OC)c1OC (stereo not drawn) | 147 to 149 °C
103 | CN1CCC(c2cccc3ccc(O)cc23)CC1 | 144 to 146 °C
